Assay results from patent US10780074B2, “Compounds and uses thereof” (Sunovion Pharmaceuticals Inc., priority 2017, dated 2020).
Counter-ions that a name gives are not always drawn.

Tested on: behaviors of compound-treated mice
Assay: Neuropharmacological Assay (SmartCube)
Type: in vivo
Settings: for minimal effective dose: Mus musculus, ip, 0.25 h, dose having 50% or more total activity in SmartCube, i.p., read-out: MED (minimal effective dose); for AD: ADHD (probability that activity matches class) / AG: analgesic (probability that activity matches class) / AX: anxiolytic (probability that activity matches class) / CE: cognitive enhancer (probability that activity matches class) / DP: anti-depressant (probability that activity matches class) / MS: mood stabilizer (probability that activity matches class) / PS: anti-psychotic (probability that activity matches class) / SD: sedative hypnotic (probability that activity matches class) / UN: uncharacterized CNS activity (probability that activity matches class): i.p. 15 min before behavioral test, most efficacious dose(s) of 3 doses
Method in brief: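 Behavioral signatures were captured automatically by video, and each drug class received a probability for the best of three i.p. doses given 15 min pre-test (vehicle: Pharmasolve/PEG/propylene glycol). Potency is given as MED, the lowest mpk dose (typically 0.3–30) reaching 50% or more total activity.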

SMILES	minimal effective dose	AD: ADHD (probability that activity matches class)	AG: analgesic (probability that activity matches class)	AX: anxiolytic (probability that activity matches class)	CE: cognitive enhancer (probability that activity matches class)	DP: anti-depressant (probability that activity matches class)	MS: mood stabilizer (probability that activity matches class)	PS: anti-psychotic (probability that activity matches class)	SD: sedative hypnotic (probability that activity matches class)	UN: uncharacterized CNS activity (probability that activity matches class)
CNCC1OCCc2c(-c3cncs3)cccc21 (centres unmarked) [Compound 52, N-Methyl-1-(5-(thiazol-5-yl)isochroman-1-yl)methanamine hydrochloride]	3 to 10 mg/kg	+ (LOQ ≤ + <5%)	+ (LOQ ≤ + <5%)	+ (LOQ ≤ + <5%)	+ (LOQ ≤ + <5%)	++++ (50% ≤ ++++)	+ (LOQ ≤ + <5%)	+ (LOQ ≤ + <5%)	+ (LOQ ≤ + <5%)	++ (5% ≤ ++ <25%)
CNC[C@@H]1OCc2c(-c3cccnc3)cccc21 [Compound 33, (R)—N-Methyl-1-(4-(pyridin-3-yl)-1,3-dihydroisobenzofuran-1-yl)methanamine hydrochloride salt]	10 to 30 mg/kg	+ (LOQ ≤ + <5%)	+ (LOQ ≤ + <5%)	++ (5% ≤ ++ <25%)	+ (LOQ ≤ + <5%)	++++ (50% ≤ ++++)	+ (LOQ ≤ + <5%)	+ (LOQ ≤ + <5%)	+ (LOQ ≤ + <5%)	+ (LOQ ≤ + <5%)
NC[C@@H]1OCCc2c(-c3cocn3)cccc21 [Compound 100, (R)-(5-(oxazol-4-yl)isochroman-1-yl)methanamine HCl salt]	3 to 10 mg/kg	+ (LOQ ≤ + <5%)	+ (LOQ ≤ + <5%)	++ (5% ≤ ++ <25%)	+ (LOQ ≤ + <5%)	+ (LOQ ≤ + <5%)	+ (LOQ ≤ + <5%)	+ (LOQ ≤ + <5%)	+ (LOQ ≤ + <5%)	++++ (50% ≤ ++++)
CNC[C@@H]1OCCc2c(-c3cccnc3)cccc21 (single isomer, unassigned) [Compound 7, bis-hydrochloride]	10 to 30 mg/kg	++ (5% ≤ ++ <25%)	+ (LOQ ≤ + <5%)	++ (5% ≤ ++ <25%)	+ (LOQ ≤ + <5%)	+++ (25% ≤ +++ <50%)	+ (LOQ ≤ + <5%)	+ (LOQ ≤ + <5%)	+ (LOQ ≤ + <5%)	+ (LOQ ≤ + <5%)
NC[C@H]1OCCc2c(-c3ccncc3)cccc21 [Compound 20, (S)-(5-(Pyridin-4-yl)isochroman-1-yl)methanamine hydrochloride salt]	≤ 3 mg/kg	++ (5% ≤ ++ <25%)	++ (5% ≤ ++ <25%)	++ (5% ≤ ++ <25%)	+ (LOQ ≤ + <5%)	++++ (50% ≤ ++++)	+ (LOQ ≤ + <5%)	+ (LOQ ≤ + <5%)	+ (LOQ ≤ + <5%)	++++ (50% ≤ ++++)
